Laboratory results from patent US20080045537A1, “Chemical Compounds” (priority 2004, published 2008).

tested on: HIV-1 IIIB (T-tropic, CXCR4 utilizing); assay: HOS HIV-1 infectivity assay; type: cell-based; conditions: Human immunodeficiency virus 1, IIIB; as determined by the infectivity assay; strain not stated in Table 2; read-out: Activity Level
Outline: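 Cells were plated and left 24 h, after which compound was added for 1 h. Virus at about 2 million RLU per well followed, with 96 h further incubation at 37 °C, 5% CO2. Luciferase activity was then measured with Steady-Glo, and uninfected-culture viability with CellTiter-Glo.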

| IC50 | SMILES |
| --- | --- |
| < 0.1 µM | CN1CCN(c2cccc3nc(CN(Cc4ccccc4)[C@H]4CCCc5cccnc54)[nH]c23)CC1 [Example 150, (8S)—N-{[4-(4-methyl-1-piperazinyl)-1H-benzimidazol-2-yl]methyl}-N-(phenylmethyl)-5,6,7,8-tetrahydro-8-quinolinamine] |
| 0.1 to 0.5 µM | CN1CCN(c2cccc3c2nc(CN(C)C2CCCc4cccnc42)n3C)CC1 (stereo not shown) [Example 152, N-Methyl-N-{[1-methyl-4-(4-methyl-1-piperazinyl)-1H-benzimidazol-2-yl]methyl}-5,6,7,8-tetrahydro-8-quinolinamine] |
| < 0.1 µM | CCn1c(CN(C)[C@H]2CCCc3cccnc32)nc2cccc(N3CCN(C)CC3)c21 [Example 164, (8S)—N-{[1-ethyl-7-(4-methyl-1-piperazinyl)-1H-benzimidazol-2-yl]methyl}-N-methyl-5,6,7,8-tetrahydro-8-quinolinamine] |
| < 0.1 µM | CCn1c(CN(Cc2ccccc2)[C@H]2CCCc3cccnc32)nc2cccc(N3CCN(C)CC3)c21 [Example 165, (8S)—N-{[1-Ethyl-7-(4-methyl-1-piperazinyl)-1H-benzimidazol-2-yl]methyl}-N-(Phenylmethyl)-5,6,7,8-tetrahydro-8-quinolinamine] |
| < 0.1 µM | CN1CCN(c2cccc3nc(CN(Cc4ccccc4)[C@H]4CCCc5cccnc54)n(C)c23)CC1 [Example 169, (8S)—N-{[1-Methyl-7-(4-methyl-1-piperazinyl)-1H-benzimidazol-2-yl]methyl}-N-(Phenylmethyl)-5,6,7,8-tetrahydro-8-quinolinamine] |
| < 0.1 µM | CN1CCN(c2ccc(Cl)c3nc(CN(C)C4CCCc5cccnc54)[nH]c23)CC1 (stereo not shown) [Example 171, N-{[4-Chloro-7-(4-methyl-1-piperazinyl)-1H-benzimidazol-2-yl]methyl}-N-methyl-5,6,7,8-tetrahydro-8-quinolinamine] |
| < 0.1 µM | C[C@H](c1nc2c(N3CCN(C)CC3)cccc2[nH]1)N(C)C1CCCc2cccnc21 (stereo partly drawn) [Example 172, N-Methyl-N-{(1R)-1-[4-(4-methyl-1-piperazinyl)-1H-benzimidazol-2-yl]ethyl}-5,6,7,8-tetrahydro-8-quinolinamine] |
| < 0.1 µM | CN1CCN(c2cccc3[nH]c([C@H](COCc4ccccc4)N(C)C4CCCc5cccnc54)nc23)CC1 (stereo partly drawn) [Example 176, N-Methyl-N-{(1R)-1-[4-(4-methyl-1-piperazinyl)-1H-benzimidazol-2-yl]-2-[(phenylmethyl)oxy]ethyl}-5,6,7,8-tetrahydro-8-quinolinamine] |
| < 0.1 µM | CN1CCN(c2cccc3[nH]c([C@@H](COCc4ccccc4)N(C)C4CCCc5cccnc54)nc23)CC1 (stereo partly drawn) [Example 177, N-Methyl-N-{(1S)-1-[4-(4-methyl-1-piperazinyl)-1H-benzimidazol-2-yl]-2-[(phenylmethyl)oxy]ethyl}-5,6,7,8-tetrahydro-8-quinolinamine] |
| < 0.1 µM | CN1CCN(c2cccc3nc(CN(C)C4CCCCc5cccnc54)[nH]c23)CC1 (stereo not shown) [Example 185, N-methyl-N-{[4-(4-methyl-1-piperazinyl)-1H-benzimidazol-2-yl]methyl}-6,7,8,9-tetrahydro-5H-cyclohepta[b]pyridin-9-amine] |

Second part, the compound before the results:

| SMILES | IC50 |
| --- | --- |
| CN1CCN(c2cccc3nc(CN(C)C4CCCc5cccnc54)n(C)c23)CC1 (stereo not shown) [Example 153, N-Methyl-N-{[1-methyl-7-(4-methyl-1-piperazinyl)-1H-benzimidazol-2-yl]methyl}-5,6,7,8-tetrahydro-8-quinolinamine] | < 0.1 µM |
| CCN(Cc1nc2cccc(N3CCN(C)CC3)c2n1C)C1CCCc2cccnc21 (stereo not shown) [Example 154, N-Ethyl-N-{[1-methyl-7-(4-methyl-1-piperazinyl)-1H-benzimidazol-2-yl]methyl}-5,6,7,8-tetrahydro-8-quinolinamine] | < 0.1 µM |
| CCCN(Cc1nc2cccc(N3CCN(C)CC3)c2n1C)C1CCCc2cccnc21 (stereo not shown) [Example 155, N-{[1-Methyl-7-(4-methyl-1-piperazinyl)-1H-benzimidazol-2-yl]methyl}-N-propyl-5,6,7,8-tetrahydro-8-quinolinamine] | < 0.1 µM |
| CN1CCN(c2cccc3nc(CN(CC4CC4)C4CCCc5cccnc54)n(C)c23)CC1 (stereo not shown) [Example 156, N-(Cyclopropylmethyl)-N-{[1-methyl-7-(4-methyl-1-piperazinyl)-1H-benzimidazol-2-yl]methyl}-5,6,7,8-tetrahydro-8-quinolinamine] | < 0.1 µM |
| CN(Cc1nc2cccc(N3CCNCC3)c2n1C)[C@H]1CCCc2cccnc21 [Example 159, (8S)—N-methyl-N-{[1-methyl-7-(1-piperazinyl)-1H-benzimidazol-2-yl]methyl}-5,6,7,8-tetrahydro-8-quinolinamine] | < 0.1 µM |
| CN1CCN(c2cccc3nc(CN(C)[C@H]4CCCc5cccnc54)n(C)c23)CC1 [Example 160, (8S)—N-Methyl-N-{[1-methyl-7-(4-methyl-1-piperazinyl)-1H-benzimidazol-2-yl]methyl}-5,6,7,8-tetrahydro-8-quinolinamine] | < 0.1 µM |
| CN1CCN(c2cccc3nc(CN(C)[C@@H]4CCCc5cccnc54)n(C)c23)CC1 [Example 161, (8R)—N-Methyl-N-{[1-methyl-7-(4-methyl-1-piperazinyl)-1H-benzimidazol-2-yl]methyl}-5,6,7,8-tetrahydro-8-quinolinamine] | < 0.1 µM |
| CCN(Cc1nc2cccc(N3CCN(C)CC3)c2n1CC)[C@H]1CCCc2cccnc21 [Example 166, (8S)—N-Ethyl-N-{[1-ethyl-7-(4-methyl-1-piperazinyl)-1H-benzimidazol-2-yl]methyl}-5,6,7,8-tetrahydro-8-quinolinamine] | < 0.1 µM |
| CCN(Cc1nc2cccc(N3CCN(C)CC3)c2n1C)[C@H]1CCCc2cccnc21 [Example 167, (8S)—N-Ethyl-N-{[1-methyl-7-(4-methyl-1-piperazinyl)-1H-benzimidazol-2-yl]methyl}-5,6,7,8-tetrahydro-8-quinolinamine] | < 0.1 µM |
| CCCN(Cc1nc2cccc(N3CCN(C)CC3)c2n1C)[C@H]1CCCc2cccnc21 [Example 168, (8S)—N-{[1-Methyl-7-(4-methyl-1-piperazinyl)-1H-benzimidazol-2-yl]methyl}-N-propyl-5,6,7,8-tetrahydro-8-quinolinamine] | < 0.1 µM |
| CN1CCN(c2c(Cl)ccc3nc(CN(C)C4CCCc5cccnc54)[nH]c23)CC1 (stereo not shown) [Example 170, N-{[5-Chloro-4-(4-methyl-1-piperazinyl)-1H-benzimidazol-2-yl]methyl}-N-methyl-5,6,7,8-tetrahydro-8-quinolinamine] | < 0.1 µM |
| Cn1c(CN(CCO)[C@H]2CCCc3cccnc32)nc2cccc(N3CCNCC3)c21 [Example 178, 2-{{[1-Methyl-7-(1-piperazinyl)-1H-benzimidazol-2-yl]methyl}[(8S)-5,6,7,8-tetrahydro-8-quinolinyl]amino}ethanol] | < 0.1 µM |
| Cn1c(CN(CCCO)[C@H]2CCCc3cccnc32)nc2cccc(N3CCNCC3)c21 [Example 179, 3-{{[1-Methyl-7-(1-piperazinyl)-1H-benzimidazol-2-yl]methyl}[(8S)-5,6,7,8-tetrahydro-8-quinolinyl]amino-}1-propanol] | < 0.1 µM |
| CN1CCN(c2cccc3nc(CN(CCO)[C@H]4CCCc5cccnc54)n(C)c23)CC1 [Example 180, 2-{{[1-Methyl-7-(4-methyl-1-piperazinyl)-1H-benzimidazol-2-yl]methyl}[(8S)-5,6,7,8-tetrahydro-8-quinolinyl]amino}ethanol] | < 0.1 µM |
| CN1CCN(c2cccc3nc(CN(CCCO)[C@H]4CCCc5cccnc54)n(C)c23)CC1 [Example 181, 3-{{[1-Methyl-7-(4-methyl-1-piperazinyl)-1H-benzimidazol-2-yl]methyl}[(8S)-5,6,7,8-tetrahydro-8-quinolinyl]amino}-1-propanol] | < 0.1 µM |
| CN1CCN(c2cccc3nc(CNC4CCc5cccnc54)[nH]c23)CC1 (stereo not shown) [Example 182, N-{[4-(4-Methyl-1-piperazinyl)-1H-benzimidazol-2-yl]methyl}-6,7-dihydro-5H-cyclopenta[b]pyridin-7-amine] | 0.1 to 0.5 µM |
| CN1CCN(c2cccc3nc(CN(C)C4CCc5cccnc54)[nH]c23)CC1 (stereo not shown) [Example 183, N-Methyl-N-{[4-(4-methyl-1-piperazinyl)-1H-benzimidazol-2-yl]methyl}-6,7-dihydro-5H-cyclopenta[b]pyridin-7-amine] | < 0.1 µM |
| CN1CCN(c2cccc3nc(CNC4CCCCc5cccnc54)[nH]c23)CC1 (stereo not shown) [Example 184, N-{[4-(4-methyl-1-piperazinyl)-1H-benzimidazol-2-yl]methyl}-6,7,8,9-tetrahydro-5H-cyclohepta[b]pyridin-9-amine] | < 0.1 µM |
